Results on 79 compounds are retold here after publication PMC12040169 (PLOS Biology, 2025).

The data set is described as follows: in vitro. The settings on record: human, hela cells, % viability.

As a reminder, the viability is a read-out of living cells in per cent, often relative to untreated cells.

As for `COC(=O)c1sc(N2CCCC2)c(S(=O)(=O)C(C)C)c1N` [CBK009463], the viability at 28.5 h, 10 µM worked out at 87.9%. Still for that read-out and setting: for `CCOc1cc(/C=C2\SC(=N)NC2=O)ccc1OC(=O)c1cccs1` [CBK265510] the value was 107%; for `CN1CCC(C(=O)NC(=O)NCCOc2cccc3ccccc23)CC1` [CBK051100], 90.1%. Regarding `CN1C(CC(O)c2ccccc2)CCCC1C(=O)c1ccccc1` (stereo not shown) [CBK268467C], the viability at 28.5 h, 10 µM was 98.8%.

As for `CN(C)[C@H]1CCN(C(=O)c2ccc(Nc3cncc(Cl)n3)cn2)C1` [CBK172073], the viability at 28.5 h, 10 µM was 88.8%.

Regarding `CN1CCN(CCCOc2ccccc2OCc2ccccc2)CC1` [CBK269630C], the viability at 28.5 h, 10 µM amounted to 90.4%.

Turning to `CCn1cc(CN(CCN(C)C)Cc2ccc(C)o2)c(C)n1` [CBK282845], the viability at 28.5 h, 10 µM was 79.6%. Same read-out and setting: for `COCOc1ccc(-c2ncc(OCc3ccc4c(c3)OCO4)nc2N)cc1` [CBK145101] the value was 100%; for `CN1CCN(C(=O)c2c(NS(=O)(=O)/C=C/c3ccccc3)sc3c2CCCC3)CC1` [CBK050417], 94.3%.

In the case of `N#Cc1c(NC(=O)CSc2nnnn2-c2ccc(C(=O)O)cc2)sc2c1CCCC2` [CBK299876], the viability at 28.5 h, 10 µM is 87.6%. Same read-out and setting: for `CCOC(=O)c1cnc(C(C)(C)C)nc1O` [CBK018470] the value was 88.6%. For `C/C(=N\NC(=N)N)C(F)(F)F` [CBK023019G], the viability at 28.5 h, 10 µM was determined as 90.1%.

For the compound `CC1CCN(S(=O)(=O)c2ccc(NC(=O)c3ccc(Br)o3)cc2)CC1` [CBK264536], the viability at 28.5 h, 10 µM is 101%. On the same count and under the same terms, for `COc1ccc(NC(=O)Nc2ccc3nc(C)c(C)nc3c2)cc1` [CBK265120] the value was 97.4%; for `Cn1cc(NC(=O)c2ccc(CN3CCCC3=O)cc2)cn1` [CBK306322], 89.7%.

For the compound `COC(=O)c1cn([C@H]2CO[C@H]3[C@@H]2OC[C@H]3OC(=O)Nc2ccccc2)nn1` [CBK289492], the viability at 28.5 h, 10 µM is 91.4%.

As to `O=C(Nc1ccc(I)cc1C(=O)NCCN1CCOCC1)c1ccc(Cl)cc1Cl` [CBK266157], the viability at 28.5 h, 10 µM came out at 100%.

Consider `CCCn1cnc2sc(C(=O)Nc3ccc(C)cc3C)c(C)c2c1=O` [CBK071815], for which the viability at 28.5 h, 10 µM is 84.6%. The same measure, in the same setting: for `CC(C)(CO)CNc1nc(-c2ccsc2)cnc1N` [CBK063499] the value was 103%. On the same count and under the same terms, for `CC(C)(C)C(=O)Nc1ccc(F)c(C(=O)N2CCc3[nH]ncc3C2)c1` [CBK305303] the value was 104%. For the compound `O=S(=O)(Nc1ccc(C(O)(C(F)(F)F)C(F)(F)F)cc1)c1cccc2cccnc12` [CBK062092], the viability at 28.5 h, 10 µM was found to be 91%.

On to `Cc1ccc(S(=O)(=O)Nc2sccc2C(=O)O)cc1[N+](=O)[O-]` [CBK042258], for which the viability at 28.5 h, 10 µM is 102%. Take `CCN(Cc1cccs1)C(=O)NC1CCCc2c1cnn2CCO` (stereo not shown) [CBK305768]: the viability at 28.5 h, 10 µM was 81.6%. The same measure, in the same setting: for `CC1(C)CC(=O)C=C(C(=O)Nc2ccccc2N2CCCNCC2)O1` [CBK038935T] the value was 112%; for `N#Cc1cccc(S(=O)(=O)Nc2cccc(C(=O)O)c2)c1` [CBK155699], 95.7%. Regarding `Cc1nnc(SCC(=O)N/N=C/c2ccc(-c3ccc(Br)cc3)o2)n1-c1ccccc1` [CBK262769], the viability at 28.5 h, 10 µM was 104%.

Regarding `O=C1CC(=O)N(Cc2ccccc2)C(=O)N1` [CBK224014], the viability at 28.5 h, 10 µM was 91.7%. Still for that read-out and setting: for `CCn1cc(S(=O)(=O)N2CCCC3(CCCCC3)C2)c(C)n1` [CBK282756] the value was 83.9%; for `COc1ccc(-c2cc(C(=O)NCc3ccc(F)cc3)cnc2-c2cccc(C)c2)cc1` [CBK036702], 98.8%; for `COC(=O)c1cnn2c(C)c(Cc3cccc(Br)c3)c(C)nc12` [CBK160273], 90.4%. The same measure, in the same setting: for `COc1ccc(S(=O)(=O)NCCNC(=O)c2cc(-c3cccnc3)cnc2NCc2ccc3c(c2)OCO3)cc1` [CBK076379] the value was 101%.

For `CCNS(=O)(=O)c1ccc(NC(=O)c2nc3nc(C)cc(C(F)F)n3n2)cc1` [CBK266146], the viability at 28.5 h, 10 µM worked out at 104%.

As to `COC(=O)c1nn(Cc2ccc(OC)cc2)c2ccccc12` [CBK093526], where the note is “bulk resorufin, single well”, the viability at 28.5 h, 10 µM worked out at 31.4%. Take `COCCNC(=O)c1ccc(-c2cccc(Cl)c2Cl)nc1N(C)C` [CBK106057]: the viability at 28.5 h, 10 µM stood at 89.4%. Same read-out and setting: for `CC(C)(C)C(=O)CN1CCC(C(=O)NC(c2ccccc2)c2ccco2)CC1` (stereo not shown) [CBK148298] the value was 109%; for `O=C(CSS(=O)(=O)O)NCc1ccccc1` [CBK260897N], 105%. Same read-out and setting: for `CC(NC(=O)C(C)(C)C)c1nc(-c2ccncc2)n[nH]1` (stereo not shown) [CBK104074] the value was 91.9%; for `Cc1cc(C(=O)O)c(C)cc1N` [CBK022781], 95.5%; for `COCC1(O)CCN(Cc2sccc2Cl)CC1` [CBK304252], 98.7%. Regarding `CS(=O)(=O)Nc1cc2cccnc2nc1-c1ccccc1` [CBK085689], the viability at 28.5 h, 10 µM stood at 104%. The same measure, in the same setting: for `COc1ccc(Cn2nc(NC(=O)Nc3c(C)noc3C)c3ccccc32)cc1` [CBK048528] the value was 88.9%; for `CCCC(=O)c1ccc(S(=O)(=O)N2CCCN(Cc3c[nH]nc3-c3ccc(F)cc3)CC2)cc1` [CBK062911], 121%; for `CCc1c(C)nc2ccccc2c1SCCOC(=O)Nc1ccc(OC)cc1` [CBK155554T], 92.5%.

`Cn1ccnc1C(NC(=O)[C@@H]1C[C@@H]2C=C[C@H]1C2)c1ccc(F)cc1` (stereo partly shown) [CBK281483]: the viability at 28.5 h, 10 µM was 95.5%. Same read-out and setting: for `O=C(C1CCOCC1)N1CCCC[C@H]2CN(Cc3ccccc3)C[C@H]21` [CBK284839] the value was 86.9%; for `CCS(=O)(=O)Nc1cc(C(F)(F)F)ccc1Cl` [CBK111339], 111%; for `O=C(CN1CCN(c2ccccc2)CC1)Nc1ccc(Cl)cc1C(=O)c1ccccc1` [CBK265827], 107%. On the same count and under the same terms, for `COc1ccc(CC(=O)N2CCC(c3cccc(Cc4cccc(F)c4)n3)CC2)cc1` [CBK286504] the value was 100%.

On to `C=CCNc1nccnc1-c1cccnc1` [CBK037016], for which the viability at 28.5 h, 10 µM was determined as 101%. The same measure, in the same setting: for `O=C(Nc1nnc(-c2ccccc2)o1)c1nc2ccccc2s1` [CBK287595] the value was 91.2%; for `COCC(C)NC(=O)C1CCCN(S(=O)(=O)c2ccc(OC)c(C)c2)C1` (stereo not shown) [CBK270242], 86%. Same read-out and setting: for `CCn1ncc(S(=O)(=O)N2CCC(c3cccc(Cc4ccccc4C)n3)CC2)c1C` [CBK286116] the value was 91%; for `COc1ccc(CN2CCN(c3ccccc3F)CC2)cc1OCc1ccccc1` [CBK261900], 115%. Still for that read-out and setting: for `O=C(O)C1(Oc2ccc3ccccc3c2)CCN(CC2CCOC2)CC1` (stereo not shown) [CBK306767] the value was 91.4%. As to `O=S(=O)(c1ccccc1)N1CC2(CCNCC2)c2ccccc21` [CBK137413], the viability at 28.5 h, 10 µM is 84.2%. For `CCC(C(=O)Nc1sc2c(c1C(N)=O)CCCCCC2)c1ccccc1` (stereo not shown) [CBK265383], the viability at 28.5 h, 10 µM was 85.8%.

In the case of `COc1ccc(/C(N)=N/OC(=O)CN(C)S(=O)(=O)c2ccccc2)cc1` [CBK267683], the viability at 28.5 h, 10 µM was 93%.

On to `O=C1N[C@@H]2CCN(C(=O)Cc3ccc(O)cc3)C[C@@H]2C/C=C/CCOc2ccccc21` [CBK292043], for which the viability at 28.5 h, 10 µM came out at 103%. The same measure, in the same setting: for `O=C(Cn1cc(C(=O)NCC2(c3ccccc3)CCCC2)ccc1=O)NC1CCCC1` [CBK286040] the value was 104%; for `O=C(COc1ccc2ccccc2c1Br)NCCN1CCOCC1` [CBK267391], 89.7%; for `O=C(COc1ccccc1Cl)Nc1nnc[nH]1` [CBK287946], 80.1%.

Consider `CN(C)c1ccccc1-c1cc(Nc2ccc(C(C)(C)C)cc2)ncn1` [CBK090872], for which the viability at 28.5 h, 10 µM worked out at 95.4%. Regarding `Cc1onc(-c2ccccc2)c1C(=O)n1cccn1` [CBK287274], the viability at 28.5 h, 10 µM turned out to be 97.5%. On the same count and under the same terms, for `O=C1OCc2ccc3c(c21)COCO3` [CBK022696] the value was 107%.

In the case of `O=[N+]([O-])c1ccc(CN2CCC(Oc3nccnc3OCc3ccc(Cl)c(Cl)c3)CC2)cc1` [CBK083107T], the viability at 28.5 h, 10 µM worked out at 104%.

For `CCOC(=O)c1ccc(N2C(=O)CC(N3CCN(c4ccc(S(C)(=O)=O)cc4)CC3)C2=O)cc1` (stereo not shown) [CBK268721], the viability at 28.5 h, 10 µM is 103%. Take `Cc1noc(C)c1COc1ccc(C(=O)N[C@@H]2CN(C(=O)NC(C)C)CCC[C@H]2O)cc1` [CBK289069]: the viability at 28.5 h, 10 µM was 93.1%. With `Cc1ccc2c(C)c(C(=O)Nc3ccc(S(N)(=O)=O)cc3)oc2c1` [CBK267661], the viability at 28.5 h, 10 µM was 110%. Turning to `CCNC(=O)N1CC2(CCN(Cc3ccc4ccccc4c3)CC2)c2ccccc21` [CBK126696], the viability at 28.5 h, 10 µM amounted to 90%. The same measure, in the same setting: for `CCCC1=NN=C(c2cc(C(F)(F)F)ccc2C(F)(F)F)C1C(=O)OCC` (stereo not shown) [CBK103527] the value was 118%.

For the compound `O=C(NC(c1ccccc1)c1ccco1)C1CCN(C(=O)c2cccs2)CC1` (stereo not shown) [CBK059854], the viability at 28.5 h, 10 µM is 82.4%. As to `Cc1ccc2nc(CNC(=O)N(C)CCc3c(C)n[nH]c3C)cn2c1` [CBK306984], the viability at 28.5 h, 10 µM worked out at 81.1%. For the compound `O=C1CSC(c2cccc(Cl)c2Cl)N1C1CCCCC1` (stereo not shown) [CBK020678], the viability at 28.5 h, 10 µM was found to be 96.7%. The same measure, in the same setting: for `NC(=O)Nc1ccc2c(c1)ncn2C1CCCCC1` [CBK288176] the value was 95.6%; for `Fc1ccc(-n2c(C3CC3)n[nH]c2=S)cc1Cl` [CBK288364], 96.7%. Still for that read-out and setting: for `O=C(Nc1nc2nccc(-c3ccccc3)n2n1)c1cccc([N+](=O)[O-])c1` [CBK265414] the value was 87.6%; for `COc1ccccc1-c1ccc(CC2(C(=O)NC3CCCCC3)CCOCC2)cc1` [CBK286515], 98.4%. Turning to `N#C/C(=C\c1ccc(-c2cc(Cl)ccc2Cl)o1)C(=O)Nc1cccc2cccnc12` [CBK263082], the viability at 28.5 h, 10 µM was 110%.

As for `CN1CCN(C(=O)c2ccc(-c3cncc(-c4ccc(O)cc4)n3)c(F)c2)CC1` [CBK126752], the viability at 28.5 h, 10 µM was determined as 100%.
